Data published in ChEMBL document CHEMBL3272337, “Synthesis of a fragment of human parathyroid hormore, hPTH-(44-68)” (J Med Chem, 1977).
Activity calls are given as the source filed them. Peptide text beside a SMILES is read from it.

Tests used:
[1] = target: T1, Adenylate cyclase (Homo sapiens) (UniProt Q8NFM4+O60503+Q08828+P40145+O60266+O95622+O43306+Q08462+P51828); test: Agonist activity at adenylyl cyclase (unknown origin) at 1.35 x 10^-4 M; assay type: protein assay
Gallus gallus = test: Induction of PTH-like activity in iv dosed chick by hypercalcemic assay; assay type: functional, organism-based
[2] = target: T1, Adenylate cyclase (Homo sapiens); test: Inhibition of bPTH-stimulated adenylyl cyclase (unknown origin) activity at 500:1 compound to native hormone molar ratio; assay type: protein assay

CC(C)C[C@H](NC(=O)[C@H](CO)NC(=O)[C@H](CCCCN)NC(=O)[C@H](CCC(=O)O)NC(=O)[C@H](Cc1cnc[nH]1)NC(=O)[C@H](CO)NC(=O)[C@H](CCC(=O)O)NC(=O)[C@@H](NC(=O)[C@H](CC(C)C)NC(=O)[C@@H](NC(=O)[C@H](CC(N)=O)NC(=O)[C@H](CC(=O)O)NC(=O)[C@H](CCC(=O)O)NC(=O)[C@H](CCCCN)NC(=O)[C@H](CCCCN)NC(=O)[C@H](CCCNC(=N)N)NC(=O)[C@@H]1CCCN1C(=O)[C@H](CCCNC(=N)N)NC(=O)[C@H](CCC(N)=O)NC(=O)[C@H](CO)NC(=O)CNC(=O)[C@H](C)NC(=O)[C@H](CC(=O)O)NC(=O)[C@@H](N)CCCNC(=N)N)C(C)C)C(C)C)C(=O)NCC(=O)O (H-RDAGSQRPRKKEDNVLVESHEKSLG-OH)
inactive: Activity [1] | Activity (Gallus gallus) | inhibition [2]
